As a reminder, the inhibition is the drop in the measured response relative to a control, in per cent. The IC50 is the concentration that gives 50% inhibition.

Where only a bound is given, the exact number is not on record here.

In assay [1] the target is Delta-type opioid receptor (Homo sapiens) (UniProt P41143). Particulars: Compound concentration 10.0 uM; call rule not given here.
Assay [2] concerns the target Alpha-2C adrenergic receptor (Homo sapiens, UniProt P18825). The assay can be described thus: Adrenoceptor reporter cell assay (ADRA2C). The format is functional.
Assay [3] deals with T1, D(2) dopamine receptor (Homo sapiens, UniProt P14416). Particulars: Compound concentration 10.0 uM.
T1 sequence (P14416 whole entry): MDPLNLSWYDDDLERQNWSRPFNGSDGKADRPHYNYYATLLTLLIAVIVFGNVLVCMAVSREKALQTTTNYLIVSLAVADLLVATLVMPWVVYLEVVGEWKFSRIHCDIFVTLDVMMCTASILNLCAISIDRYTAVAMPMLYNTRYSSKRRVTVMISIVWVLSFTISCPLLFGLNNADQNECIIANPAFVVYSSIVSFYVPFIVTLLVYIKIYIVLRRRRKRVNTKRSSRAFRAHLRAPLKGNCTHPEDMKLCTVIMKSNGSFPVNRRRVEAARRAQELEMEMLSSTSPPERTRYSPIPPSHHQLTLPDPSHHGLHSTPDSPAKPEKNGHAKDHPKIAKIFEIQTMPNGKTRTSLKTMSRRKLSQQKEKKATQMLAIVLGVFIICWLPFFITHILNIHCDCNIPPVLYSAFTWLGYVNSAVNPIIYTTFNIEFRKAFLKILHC
The target in assay [4] is Adenosine receptor A1 (Homo sapiens) (UniProt P30542). Particulars: Compound concentration 10.0 uM.
Assay [5] concerns the target Alpha-1A adrenergic receptor (Homo sapiens) (UniProt P35348). Particulars: Compound concentration 10.0 uM.
Assay [6] concerns the target Histamine H2 receptor (Homo sapiens) (UniProt P25021). Particulars: Compound concentration 10.0 uM.
Assay [7] deals with D(1A) dopamine receptor (Homo sapiens) (UniProt P21728). Particulars: Compound concentration 10.0 uM.
Sequence of D(1A) dopamine receptor (Homo sapiens) (P21728 whole entry): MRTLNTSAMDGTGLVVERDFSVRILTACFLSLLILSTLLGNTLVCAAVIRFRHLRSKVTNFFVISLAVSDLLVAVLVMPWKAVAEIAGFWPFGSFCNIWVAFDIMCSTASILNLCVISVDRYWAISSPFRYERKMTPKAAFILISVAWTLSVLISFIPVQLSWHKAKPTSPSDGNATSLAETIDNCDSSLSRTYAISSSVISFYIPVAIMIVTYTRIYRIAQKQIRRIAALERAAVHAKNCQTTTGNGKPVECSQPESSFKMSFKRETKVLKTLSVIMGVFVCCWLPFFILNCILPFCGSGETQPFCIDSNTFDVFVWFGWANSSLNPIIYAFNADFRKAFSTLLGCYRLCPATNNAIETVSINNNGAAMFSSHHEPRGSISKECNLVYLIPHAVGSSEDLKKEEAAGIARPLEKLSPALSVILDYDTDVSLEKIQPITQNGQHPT
Assay [8] addresses Insulin receptor (Homo sapiens) (UniProt P06213). Particulars: Rattus norvegicus; Compound concentration 10.0 uM.
Assay [9] addresses T1, D(2) dopamine receptor. Particulars: Compound concentration 10.0 uM. The source holds these as a separate data set.
For assay [10], the target named is T1, D(2) dopamine receptor. Particulars: Compound concentration 10.0 uM. The source holds these as a separate data set.
Assay [11] deals with D(3) dopamine receptor (Homo sapiens) (UniProt P35462). Particulars: Compound concentration 10.0 uM.
Sequence of D(3) dopamine receptor (Homo sapiens) (P35462 whole entry): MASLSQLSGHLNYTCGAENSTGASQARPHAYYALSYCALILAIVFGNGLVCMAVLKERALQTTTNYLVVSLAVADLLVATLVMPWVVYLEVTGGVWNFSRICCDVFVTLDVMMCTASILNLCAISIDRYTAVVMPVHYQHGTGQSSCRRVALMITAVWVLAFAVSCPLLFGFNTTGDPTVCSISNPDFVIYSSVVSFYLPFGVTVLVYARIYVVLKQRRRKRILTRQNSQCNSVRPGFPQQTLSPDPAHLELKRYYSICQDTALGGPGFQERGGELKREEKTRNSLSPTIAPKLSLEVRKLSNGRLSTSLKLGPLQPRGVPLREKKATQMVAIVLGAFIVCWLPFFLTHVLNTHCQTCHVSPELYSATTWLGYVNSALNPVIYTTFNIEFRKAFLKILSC
Assay [12] deals with Kappa-type opioid receptor (Homo sapiens) (UniProt P41145). Particulars: Compound concentration 10.0 uM.
Sequence of Kappa-type opioid receptor (Homo sapiens) (P41145 whole entry): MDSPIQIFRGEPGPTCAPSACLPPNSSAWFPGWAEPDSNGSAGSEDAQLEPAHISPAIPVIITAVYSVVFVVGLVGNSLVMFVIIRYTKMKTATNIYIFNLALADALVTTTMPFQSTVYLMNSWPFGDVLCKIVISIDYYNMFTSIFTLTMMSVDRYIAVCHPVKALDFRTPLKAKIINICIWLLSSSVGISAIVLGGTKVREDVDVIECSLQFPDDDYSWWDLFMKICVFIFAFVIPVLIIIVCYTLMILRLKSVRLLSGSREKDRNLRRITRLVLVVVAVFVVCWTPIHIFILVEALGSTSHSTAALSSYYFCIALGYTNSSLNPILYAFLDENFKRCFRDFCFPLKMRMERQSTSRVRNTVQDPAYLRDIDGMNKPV
Assay [13] has as its target Cannabinoid receptor 2 (Homo sapiens) (UniProt P34972). Particulars: Compound concentration 10.0 uM.
Assay [14] has as its target Beta-1 adrenergic receptor (Homo sapiens, UniProt P08588). The assay can be described thus: Adrenoceptor reporter cell assay (ADRB1). The format is functional.
In assay [15] the target is Alpha-1A adrenergic receptor (Homo sapiens, UniProt P35348). The assay can be described thus: Adrenoceptor reporter cell assay (ADRA1A). Format: functional.
Sequence of Alpha-1A adrenergic receptor (P35348 whole entry): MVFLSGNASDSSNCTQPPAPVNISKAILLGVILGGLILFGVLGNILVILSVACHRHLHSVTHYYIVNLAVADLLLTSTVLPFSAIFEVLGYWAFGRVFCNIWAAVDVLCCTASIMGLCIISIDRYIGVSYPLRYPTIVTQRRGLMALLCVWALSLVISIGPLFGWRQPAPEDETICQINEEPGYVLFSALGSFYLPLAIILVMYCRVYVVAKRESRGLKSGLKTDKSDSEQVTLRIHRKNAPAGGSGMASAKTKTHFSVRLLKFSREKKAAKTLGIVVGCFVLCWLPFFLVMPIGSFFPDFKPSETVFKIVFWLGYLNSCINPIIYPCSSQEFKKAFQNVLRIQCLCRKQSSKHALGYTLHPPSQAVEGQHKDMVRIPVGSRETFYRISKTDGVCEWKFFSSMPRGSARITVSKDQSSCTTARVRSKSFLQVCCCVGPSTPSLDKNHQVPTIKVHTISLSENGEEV
In assay [16] the target is Adenosine receptor A2a (Homo sapiens) (UniProt P29274). Particulars: Compound concentration 10.0 uM.
Assay [17] concerns the target Muscarinic acetylcholine receptor M5 (Homo sapiens) (UniProt P08912). Particulars: Compound concentration 10.0 uM.
Assay [18] has as its target B1 bradykinin receptor (Homo sapiens) (UniProt P46663). Particulars: Compound concentration 10.0 uM.
Assay [19] deals with Beta-2 adrenergic receptor (Homo sapiens, UniProt P07550). The assay can be described thus: Adrenoceptor reporter cell assay (ADRB2). The format is functional.
Assay [20] deals with Sigma non-opioid intracellular receptor 1 (Homo sapiens) (UniProt Q99720). Particulars: Compound concentration 10.0 uM.
Sequence of Sigma non-opioid intracellular receptor 1 (Homo sapiens) (Q99720 whole entry): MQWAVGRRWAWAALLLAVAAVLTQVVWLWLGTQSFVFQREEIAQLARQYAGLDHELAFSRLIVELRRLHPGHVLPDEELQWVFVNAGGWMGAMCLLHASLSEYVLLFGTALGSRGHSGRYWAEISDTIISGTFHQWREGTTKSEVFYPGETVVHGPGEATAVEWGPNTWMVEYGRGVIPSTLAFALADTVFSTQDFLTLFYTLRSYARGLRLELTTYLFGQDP
Assay [21] has as its target Alpha-2A adrenergic receptor (Homo sapiens) (UniProt P08913). Particulars: Compound concentration 10.0 uM.
Assay [22] addresses Carbonic anhydrase 2 (Homo sapiens) (UniProt P00918). The assay can be described thus: Inhibition of Carbonic Anhydrase II at compound concentration of 10.0 uM in the Eurofins-Panlabs enzyme assay (Eurofins_assay_112020). The arrangement: substrate with concentration. Particulars: Compound concentration 10.0 uM.
Assay [23] addresses T2, 5-hydroxytryptamine receptor 1A (Homo sapiens) (UniProt P08908).
T2 sequence (whole entry): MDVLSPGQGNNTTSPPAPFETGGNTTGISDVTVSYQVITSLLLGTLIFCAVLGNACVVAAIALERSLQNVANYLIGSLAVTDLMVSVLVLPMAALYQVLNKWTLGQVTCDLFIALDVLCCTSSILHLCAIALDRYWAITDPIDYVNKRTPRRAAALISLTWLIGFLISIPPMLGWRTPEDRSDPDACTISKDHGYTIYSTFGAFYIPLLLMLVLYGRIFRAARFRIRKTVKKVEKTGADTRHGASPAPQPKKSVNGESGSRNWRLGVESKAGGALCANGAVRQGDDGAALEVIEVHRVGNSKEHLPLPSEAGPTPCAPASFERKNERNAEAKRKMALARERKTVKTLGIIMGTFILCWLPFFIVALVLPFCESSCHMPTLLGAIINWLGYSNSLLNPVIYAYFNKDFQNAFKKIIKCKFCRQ
Particulars: Compound concentration 10.0 uM.

Assay [24] has as its target T3, Muscarinic acetylcholine receptor M2 (Homo sapiens) (UniProt P08172).
T3 sequence (whole entry): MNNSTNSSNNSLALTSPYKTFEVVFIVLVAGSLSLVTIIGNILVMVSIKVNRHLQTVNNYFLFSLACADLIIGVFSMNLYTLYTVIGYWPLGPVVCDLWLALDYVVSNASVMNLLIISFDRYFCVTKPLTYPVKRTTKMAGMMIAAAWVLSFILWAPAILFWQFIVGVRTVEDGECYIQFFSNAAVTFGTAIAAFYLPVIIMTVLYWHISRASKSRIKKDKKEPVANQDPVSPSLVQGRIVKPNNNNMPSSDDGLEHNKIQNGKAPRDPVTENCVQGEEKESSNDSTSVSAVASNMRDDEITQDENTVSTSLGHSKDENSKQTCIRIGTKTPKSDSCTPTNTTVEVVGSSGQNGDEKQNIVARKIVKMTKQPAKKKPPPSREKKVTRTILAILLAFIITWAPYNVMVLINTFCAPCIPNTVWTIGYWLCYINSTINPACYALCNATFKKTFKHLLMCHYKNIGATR
Particulars: Compound concentration 10.0 uM.

Assay [25] has as its target Sodium-dependent noradrenaline transporter (Homo sapiens) (UniProt P23975). Particulars: Compound concentration 10.0 uM.
The species entered for assay [26] is Oryctolagus cuniculus. Particulars: Compound concentration 10.0 uM.
Assay [27] deals with Sodium-dependent dopamine transporter (Homo sapiens) (UniProt Q01959). Particulars: Compound concentration 10.0 uM.
The target of assay [28] is T4, Alpha-2B adrenergic receptor (Homo sapiens, UniProt P18089).
T4 sequence (P18089 whole entry): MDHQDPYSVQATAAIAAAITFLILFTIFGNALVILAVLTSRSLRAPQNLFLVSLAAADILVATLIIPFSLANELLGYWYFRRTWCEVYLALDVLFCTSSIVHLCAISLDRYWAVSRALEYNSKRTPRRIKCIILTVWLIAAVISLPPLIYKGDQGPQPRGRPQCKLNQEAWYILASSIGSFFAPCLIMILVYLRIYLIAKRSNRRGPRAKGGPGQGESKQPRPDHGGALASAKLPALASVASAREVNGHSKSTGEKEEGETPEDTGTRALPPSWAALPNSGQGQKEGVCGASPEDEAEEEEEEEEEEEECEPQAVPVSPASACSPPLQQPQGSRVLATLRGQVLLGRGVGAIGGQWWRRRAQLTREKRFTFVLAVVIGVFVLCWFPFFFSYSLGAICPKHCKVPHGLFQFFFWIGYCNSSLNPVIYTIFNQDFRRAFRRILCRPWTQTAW
The assay can be described thus: Adrenoceptor Reporter Cell Assay (ADRA2B). The format is functional.

For assay [29], the target named is T4, Alpha-2B adrenergic receptor. The assay can be described thus: GPCRScan assay: inhibition of Alpha2B. Also noted: radioligand conc. used [nm] 1.5 – 2.0, parental cells HEKT.

Sequence of Alpha-1A adrenergic receptor (Homo sapiens) (P35348 whole entry): as the sequence (P35348 whole entry) above
Sequence of Sodium-dependent noradrenaline transporter (Homo sapiens) (P23975 whole entry): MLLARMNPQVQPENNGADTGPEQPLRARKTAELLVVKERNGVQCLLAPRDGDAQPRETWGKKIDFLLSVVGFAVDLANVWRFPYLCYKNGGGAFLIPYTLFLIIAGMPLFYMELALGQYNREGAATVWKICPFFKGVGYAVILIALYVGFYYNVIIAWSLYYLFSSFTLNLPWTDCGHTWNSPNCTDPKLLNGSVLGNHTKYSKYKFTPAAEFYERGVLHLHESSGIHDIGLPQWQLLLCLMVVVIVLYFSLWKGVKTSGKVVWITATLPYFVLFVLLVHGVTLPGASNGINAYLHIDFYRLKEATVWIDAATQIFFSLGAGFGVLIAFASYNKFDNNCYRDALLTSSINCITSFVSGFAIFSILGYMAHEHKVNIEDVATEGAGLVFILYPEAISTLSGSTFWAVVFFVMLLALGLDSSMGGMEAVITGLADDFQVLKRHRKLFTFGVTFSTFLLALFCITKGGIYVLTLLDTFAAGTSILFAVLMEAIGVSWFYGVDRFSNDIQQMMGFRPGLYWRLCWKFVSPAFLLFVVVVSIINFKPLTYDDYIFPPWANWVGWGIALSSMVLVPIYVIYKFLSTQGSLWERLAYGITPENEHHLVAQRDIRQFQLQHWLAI
Sequence of Muscarinic acetylcholine receptor M5 (Homo sapiens) (P08912 whole entry): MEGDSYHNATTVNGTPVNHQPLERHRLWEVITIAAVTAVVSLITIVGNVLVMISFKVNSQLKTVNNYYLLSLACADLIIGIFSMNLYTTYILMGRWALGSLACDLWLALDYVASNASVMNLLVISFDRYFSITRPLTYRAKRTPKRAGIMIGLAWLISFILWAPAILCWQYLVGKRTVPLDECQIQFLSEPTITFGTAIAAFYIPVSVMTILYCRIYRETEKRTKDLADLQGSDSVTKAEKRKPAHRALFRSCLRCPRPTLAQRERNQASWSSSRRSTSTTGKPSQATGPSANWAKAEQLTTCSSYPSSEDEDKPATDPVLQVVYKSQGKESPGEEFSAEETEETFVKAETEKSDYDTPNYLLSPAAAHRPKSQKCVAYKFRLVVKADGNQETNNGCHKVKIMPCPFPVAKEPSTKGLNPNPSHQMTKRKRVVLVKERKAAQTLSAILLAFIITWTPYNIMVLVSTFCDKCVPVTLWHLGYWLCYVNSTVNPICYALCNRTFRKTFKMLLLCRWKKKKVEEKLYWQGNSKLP
Sequence of Delta-type opioid receptor (Homo sapiens) (P41143 whole entry): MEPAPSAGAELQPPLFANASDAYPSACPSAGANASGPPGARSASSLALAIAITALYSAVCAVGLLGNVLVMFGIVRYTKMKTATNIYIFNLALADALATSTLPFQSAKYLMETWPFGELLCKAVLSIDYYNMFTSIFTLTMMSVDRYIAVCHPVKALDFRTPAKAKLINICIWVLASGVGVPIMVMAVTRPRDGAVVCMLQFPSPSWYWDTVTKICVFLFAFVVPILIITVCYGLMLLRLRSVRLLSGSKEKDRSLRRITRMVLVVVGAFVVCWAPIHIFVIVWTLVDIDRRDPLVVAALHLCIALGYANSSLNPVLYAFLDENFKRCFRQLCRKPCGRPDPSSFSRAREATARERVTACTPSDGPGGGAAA
Sequence of Histamine H2 receptor (Homo sapiens) (P25021 whole entry): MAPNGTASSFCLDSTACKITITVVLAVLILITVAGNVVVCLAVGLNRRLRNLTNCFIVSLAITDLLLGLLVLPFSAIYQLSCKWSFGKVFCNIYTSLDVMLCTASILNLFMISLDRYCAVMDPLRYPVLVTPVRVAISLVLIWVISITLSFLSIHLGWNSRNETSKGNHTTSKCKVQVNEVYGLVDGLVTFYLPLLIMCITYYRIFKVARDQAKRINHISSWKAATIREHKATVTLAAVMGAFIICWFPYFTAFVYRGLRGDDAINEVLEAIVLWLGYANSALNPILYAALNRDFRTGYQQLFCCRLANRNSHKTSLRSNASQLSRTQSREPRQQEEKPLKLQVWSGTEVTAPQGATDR
Sequence of Alpha-2A adrenergic receptor (Homo sapiens) (P08913 whole entry): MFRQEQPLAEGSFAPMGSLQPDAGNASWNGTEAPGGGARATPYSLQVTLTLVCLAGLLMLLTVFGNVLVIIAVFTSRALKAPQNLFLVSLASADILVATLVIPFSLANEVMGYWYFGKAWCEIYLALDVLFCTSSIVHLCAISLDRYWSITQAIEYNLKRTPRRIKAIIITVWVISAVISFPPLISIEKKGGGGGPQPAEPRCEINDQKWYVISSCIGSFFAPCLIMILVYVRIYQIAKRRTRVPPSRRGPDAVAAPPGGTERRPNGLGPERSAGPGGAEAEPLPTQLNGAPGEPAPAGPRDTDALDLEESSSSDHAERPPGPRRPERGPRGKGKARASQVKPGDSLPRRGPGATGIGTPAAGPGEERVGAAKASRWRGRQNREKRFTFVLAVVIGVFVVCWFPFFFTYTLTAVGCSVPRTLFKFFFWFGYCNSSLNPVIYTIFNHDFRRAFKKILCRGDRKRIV

Take `CNc1cc[n+](CCNC(=O)c2ccn3c(-c4c(C)noc4C)cnc3c2)cc1`: the inhibition in assay [1] is 20.1%; in assay [3], -1.6%; in [4], 1.2%; in assay [5] it was 31.1%; in assay [6], 5.19%; in assay [7], -2.83%. Moreover, the inhibition in assay [8] was -3.4%; in assay [9], 10.6%; in assay [10] it was -5.2%; in assay [11], 8.88%; in [12] it was 32.3%; in [13], -3.8%. For the same compound, the inhibition in assay [16] was -8.3%; in assay [17], -5%; in [18], -0.9%; in assay [20] it was 35.5%; in assay [21] it was 49.5%; in assay [22], 3%. Besides, the inhibition in [23] is 33.4%; in assay [24], 6.4%; in [25] it was -2.68%; in assay [26] it was -7.5%. Besides, the IC50 is given as > 11.8 µM (not active) in assay [2], > 10 µM (not active) in [14], 5.52 µM (not active) in [15] and > 10 µM (not active) in [19].
Regarding `Cc1noc(C)c1-c1cnc2cc(C(=O)NCCC[n+]3ccc(N(C)C)cc3)ccn12`, the inhibition is -5.36% in [1]; 9.17% in assay [5]; -3.28% in [27]; 9.52% in assay [6]; -2.67% in assay [7]; -1.11% in assay [9]. Further, the inhibition was -6.53% in [11]; 28.2% in [12]; -1.12% in assay [17]; 25.1% in [20]; 16.1% in assay [21]; 81.7% in assay [23]. Further, the inhibition in assay [25] was 1.75%. In addition, the IC50 is > 10 µM (not active) in [2], > 10 µM (not active) in assay [15] and 7.1 µM (not active) in assay [28]. Also, the Ki was 2.76 µM in assay [29] (read-out: Ki) and 2.51 µM in [29] (read-out: pKi (converted)).
